Source: the supplement of paper PMC10307832

Tests used:
Assay in all cases: relative viability (nuclei count vs DMSO), 5 days (fraction); higher = more cells survive
[1] = compound: CC(=O)Nc1cccc(-n2c(=O)n(C3CC3)c(=O)c3c(Nc4ccc(I)cc4F)n(C)c(=O)c(C)c32)c1 [Trametinib] + CS(=O)(=O)CCNCc1ccc(-c2ccc3ncnc(Nc4ccc(OCc5cccc(F)c5)c(Cl)c4)c3c2)o1 [Lapatinib] (partner 2 µM)
Summary of the method: (§1)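 Values are medians from duplicate plates. Each reflects relative viability, defined as the nuclei count of treated wells over that of vehicle wells. Lung cancer cell lines in 1536-well plates were pin-tool dosed one day after seeding with one drug alone or with a fixed anchor-drug dose plus five library-drug doses (not always all listed) in √10 steps, then fixed, stained and imaged at 4× after 5 days.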

[2] = compound: CC(=O)Nc1cccc(-n2c(=O)n(C3CC3)c(=O)c3c(Nc4ccc(I)cc4F)n(C)c(=O)c(C)c32)c1 [Trametinib] + Cc1cc(Nc2cc(N3CCN(C)CC3)nc(Sc3ccc(NC(=O)C4CC4)cc3)n2)n[nH]1 [Tozasertib] (partner 0.1 µM)
Summary of the method: as §1

[3] = compound: CN1C=C(C2=CC=CC=C21)/C=C\3/C4=C(C=CC=N4)NC3=O + CC(C)C[C@H](NC(=O)[C@H](Cc1ccccc1)NC(=O)c1cnccn1)B(O)O [Bortezomib] (partner 0.002 µM)
Summary of the method: as §1

[4] = compound: CN1C=C(C2=CC=CC=C21)/C=C\3/C4=C(C=CC=N4)NC3=O + C[C@]1(O)C[C@@H](c2nc(-c3ccc4ccc(-c5ccccc5)nc4c3)c3c(N)nccn32)C1 [Linsitinib] (partner 1 µM)
Summary of the method: as §1

| Cell Line | relative viability ([1]; first compound 0.0025 µM) | relative viability ([1]; first compound 0.007906 µM) | relative viability ([1]; first compound 0.025 µM) | relative viability ([1]; first compound 0.07906 µM) | relative viability ([1]; first compound 0.25 µM) | relative viability ([2]; first compound 0.0025 µM) | relative viability ([2]; first compound 0.007906 µM) | relative viability ([2]; first compound 0.025 µM) | relative viability ([2]; first compound 0.07906 µM) | relative viability ([2]; first compound 0.25 µM) | relative viability ([3]; first compound 0.02 µM) | relative viability ([3]; first compound 0.06325 µM) | relative viability ([3]; first compound 0.2 µM) | relative viability ([3]; first compound 0.6325 µM) | relative viability ([3]; first compound 2 µM) | relative viability ([4]; first compound 0.02 µM) | relative viability ([4]; first compound 0.06325 µM) | relative viability ([4]; first compound 0.2 µM) | relative viability ([4]; first compound 0.6325 µM) | relative viability ([4]; first compound 2 µM) |
| --- | --- | --- | --- | --- | --- | --- | --- | --- | --- | --- | --- | --- | --- | --- | --- | --- | --- | --- | --- | --- |
| LC-2-ad | 0.917 | 0.839 | 0.664 | 0.639 | 0.285 | 0.487 | 0.406 | 0.406 | 0.393 | 0.306 | 1 | 0.942 | 0.964 | 0.971 | 0.965 | 0.743 | 0.83 | 0.766 | 0.864 | 0.765 |
| LCLC-97TM1 | 0.666 | 0.944 | 0.666 | 0.3 | 0.138 | 0.202 | 0.29 | 0.225 | 0.143 | 0.19 | – | 0.444 | – | 0.521 | 0.517 | 0.164 | – | – | 0.203 | 0.179 |
| LOU-NH91 | 0.745 | 0.736 | 0.603 | 0.753 | 0.414 | 0.639 | 0.609 | 0.592 | 0.548 | 0.399 | 0.473 | 0.489 | 0.468 | 0.441 | 0.485 | 0.858 | 0.889 | 0.851 | 0.928 | 0.927 |
| LU99A | 0.866 | 0.911 | 0.719 | 0.674 | 0.267 | 0.234 | 0.272 | 0.232 | 0.244 | 0.232 | 1.16 | 1.09 | 1.09 | 1.13 | 0.964 | 0.534 | 0.506 | 0.509 | 0.485 | 0.617 |
| LXF-289 | 0.863 | 0.759 | 0.677 | 0.615 | 0.57 | 0.198 | 0.174 | 0.208 | 0.181 | 0.143 | 0.951 | 0.992 | 1.1 | 1.02 | 1.04 | 0.901 | 0.935 | 1.04 | 1 | 0.999 |
| NCI-H23 | 0.872 | 0.74 | 0.335 | 0.529 | 0.211 | 0.339 | 0.211 | 0.283 | 0.248 | 0.213 | 1.02 | 0.982 | – | 0.938 | 1.21 | 0.614 | 0.648 | – | 0.655 | 0.631 |
| NCI-H322M | 0.59 | 0.469 | 0.443 | 0.388 | 0.455 | 0.465 | 0.361 | 0.387 | 0.331 | 0.369 | 1.22 | 1.28 | 1.22 | 1.31 | 1.25 | 1.01 | 0.993 | 0.874 | 0.819 | 0.862 |
| NCI-H460 | 0.897 | 0.754 | 0.42 | 0.148 | 0.0413 | 0.267 | 0.262 | 0.278 | 0.152 | 0.0343 | 1.23 | 1.1 | 1.07 | – | 1.14 | 0.8 | 0.838 | 0.789 | – | 0.906 |
